Laboratory results: patent publication US20040115126A1, “Compositions and methods for the non-invasive detection of polypeptides in vivo” (The Regents of the University of Michigan, priority 2002, published 2004)

B1: TRAIL: TNF-related apoptosis inducing ligand (protein, UniProt P50591 1-281, looked up)
Tumor necrosis factor ligand …: MAMMEVQGGPSLGQTCVLIVIFTVLLQSLCVAVTYVYFTNELKQMQDKYSKSGIACFLKEDDSYWDPNDEESMNSPCWQVKWQLRQLVRKMILRTSEETISTVQEKQQNISPLVRERGPQRVAAHITGTRGRSNTLSSPNSKNEKALGRKINSWESSRSGHSFLSNLHLRNGELVIHEKGFYYIYSQTYFRFQEEIKENTKNDKQMVQYIYKYTSYPDPILLMKSARNSCWSKDAEYGLYSIYQGGIFELKENDRIFVSVTNEHLIDMDHEASFFGAFLVG

Tests used:
[1] = system: 9L gliosarcoma cells genetically engineered to stably express firefly luciferase (9LLuc); assay: BCNU chemotherapy of orthotopic 9L-Luc rat brain tumors, log cell kill from serial MRI and BLI; assay type: in vivo; details: intracerebral 9LLuc tumor, treated 16 days after implantation, mean ±SEM, n=5
From the text: Current assessment of orthotopic tumor models in animals utilizes survival as the primary therapeutic endpoint. In vivo bioluminescence imaging ([…]) is a sensitive imaging modality that is rapid and accessible, and comprises an ideal tool for evaluating antineoplastic therapies. Using human tumor cell lines constitutively expressing luciferase, the kinetics of tumor growth and response to therapy have been assessed in intraperitoneal, subcutaneous and intravascular cancer models. […] Therefore, the ability of BLI to noninvasively quantitate the growth and therapeutic-induced cell kill of orthotopic rat brain tumors derived from 9L gliosarcoma cells genetically engineered to stably express firefly luciferase (9L^Luc) was investigated.
Intracerebral tumor burden was monitored over time by quantifying photon emission and tumor volume using a cryogenically-cooled CCD camera and magnetic resonance imaging (MRI), respectively. Excellent correlation (r=0.91) between detected photons and tumor volume was found.
FIGS. 5A-5O show a temporal analysis of the response of a 9L^Luc tumor to BCNU chemotherapy. […] Tumor volume was monitored with T2-weighted MRI (FIGS. 5A-5F) and infra-tumoral luciferase activity was monitored with BLI (FIGS. 5G-5L). […] Quantitative analysis of tumor progression and response to BCNU chemotherapy is shown by the graph FIG. 50. […]

[2] = system: D-54 derived stable cell line expressing a caspase-3 reporter molecule; assay: Non-invasive bioluminescence imaging of apoptosis in D-54 caspase-3 reporter tumors in nude mice; assay type: in vivo; details: 50 ug intratumorally, s.q. D-54 reporter tumors in nude mice, IVIS imaging after luciferin
From the text: FIG. 6 depicts one strategy for imaging apoptosis. In this example, an estrogen regulatory domain results in silencing of luciferase due to sequestration. Activation of caspase-3 during apoptosis results in cleavage at the DEVD site, thus, releasing luciferase from the silencing effects of the estrogen regulatory domain. The free luciferase can, in the presence of luciferin, generate bioluminescense which can be imaged in vitro or in vivo using a Xenogen camera system.
FIGS. 8A and 8B depict non-invasive imaging of apoptosis. D-54 derived stable cell line expressing a caspase-3 reporter molecule similar to that described in FIG. 6 was implanted s.q. into nude mice. When the tumors reached a palpatable size they were treated with vector only (PBS, Panel A) or with 50 ug of TRAIL intratumoraly (panel B). Bioluminescent activity within the tumor was then measured after injection of luciferin using a IVIS imaging system.

[3] = system: D-54 cells expressing ER-Luc-ER caspase-3 reporter; assay: Western blot of caspase-3 reporter (ER-Luc-ER) cleavage in D-54 cells; assay type: cell-based; details: various concentrations for 3 hrs
Experimental: FIG. 7 depicts a western blot showing induction of apoptosis. In D-54 cells, a caspase-3 reporter construct analogous to the one described in FIG. 6 except with ER domains as well as the caspase-3 cleavage sequence (DEVD) were present on the amino and carboxy termini (ER-Luc-ER) was used in the above studies. […] D-54 cells expressing this molecule were treated with TRAIL (TNF-related apoptosis inducing ligand) at various concentrations for 3 hrs.

Molecule | Log cell kill calculated using BLI ([1]; BLI photon emission) | Log cell kill calculated using MRI ([1]; T2-weighted MRI tumor volume) | increase in bioluminescence compared to the vector control [2] | cleavage of ER-Luc-ER reporter (luciferase specific antibody western blot) [3]
O=NN(CCCl)C(=O)NCCCl [BCNU, 1,3-bis(2-chloroethyl)-1 nitrosourea] | 1.84±0.73 | 1.78±0.36 |  | 
B1 |  |  | 2-3 × | cleaved to a 90 kD molecule (ER-Luc) and subsequently to Luc (60 kD)
